For assay [1], the target named is T1, Proton Pump (H^+ /K^+ ATPase) (Oryctolagus cuniculus, UniProt P27112).
T1 construct: The microsomes thus obtained were used as an enzyme source of the in vitro enzyme reaction study of proton pump; from tissue; host or cells: rabbit stomach, mucosal scrapings, microsomes (180,000 g pellet)
The experiment in a line: Inhibition of Proton Pump (H+/K+ ATPase) Activity, in vitro enzyme reaction (Experiment 1). To be noted: for Effect ratio: IC50 of Omeprazole / IC50 of test compound; for IC50: K+-stimulated H+/K+ ATPase activity, rabbit gastric microsomes, pH 7.2, 37° C., 15 min prereaction, 30 min reaction, read-out: IC50 of test compound, inhibition (50%) of the proton pump activity. Format: biochemical, New Zealand white rabbit. The protocol: A New Zealand white rabbit was killed by blowing its head and the stomach was taken out. The contents of the stomach were removed and the stomach walls were washed with was saline. The inner wall of the stomach was scratched out with a slide glass and the cells thus obtained were homogenized in 0.25M sucrose buffer by means of a Teflon-glass homogenizer. The homogenous solution was centrifuged at 10,000 g for 10 minutes and the supernatant was further centrifuged at 20,000 g for 20 minutes. The supernatant thus obtained was centrifuged at an ultra-high speed of 180,000 g for 1 hour. The pellets precipitated were collected by discarding the supernatant and suspended in 50 mM Tris-HCl buffer having pH 7.2. The suspension was dialyzed twice with the same buffer(of 1,000 times volume) for 3 hours and stored into liquid nitrogen.
The above centrifugation and dialysis were carried out at 4° C. The microsomes thus obtained were used as an enzyme source of the in vitro enzyme reaction study of proton pump.
The inhibitory effects of proton pump activity by the compounds of the present invention were measured by the in vitro enzyme reaction study. The proton pump activity stimulated by Mg^++ was used as a negative comparative group, and the activity stimulated by Mg^++ and K^+ was used as a positive comparative group. The comparative compound was omeprazole.
Test tubes were divided into 4 groups: Group 1 as negative comparative group(n=3), Group 2 as positive comparative group(n=3), Group 3(n=5) to be administered with the compound of the present invention and Group 4(n=5) to be administered with the comparative compound. The inhibitory effects of proton pump activity of Groups 3 and 4 were measured by employing the compound prepared in Example 34 and omeprazole, respectively, each of which was dissolved in dimethylsulfoxide at 5 different concentrations.
To each of Groups 1, 2, 3 and 4, were added 0.1 ml of magnesium chloride(40 mM) dissolved in 50 mM Tris-HCl buffer (pH 7.2) and […] of the enzyme source prepared in Experiment 1-1. Then, 0.1 ml of potassium chloride(500 mM) and 0.1 ml of ammonium chloride(100 mM) dissolved in 50 mM Tris-HCl buffer(pH 7.2) were added to all groups except for Group 1.
0.1 ml of dimethylsulfoxide was added to each of Groups 1 and 2; and to Group 3 was added 0.01 ml of the solution in which the compound prepared in Example 34 was dissolved in dimethylsulfoxide at 5 different concentrations. To Group 4, 0.01 ml of the solution prepared by dissolving omprazole in dimethylsulfoxide at 5 different concentrations(37.6, 21.4, 12.2, 7.0 and 4.0 μM) was added. 50 mM Tris-HCl buffer was added thereto so as to make the total volume 0.4 ml.
Thereafter, the test tubes of each Group were placed at 37° C. for 15 minutes for the prereaction. 0.1 ml of ATP solution(33.3 mM), which was prepared by adding Tris-ATP 50 mM to Tris-HCl buffer having pH 7.2, was added until the reaction volume became 0.5 ml. The final concentrations of MgCl2, KCl, NH4 Cl, ATP, enzyme and Tris-HCl were 8 mM, 100 mM, 20 mM, 6.7 mM, 100μg/ml and 50 mM, respectively. After the reaction was carried out at 37° C. for 30 minutes, 25% cold trichloroacetic acid was added to terminate the enzyme reaction. The released inorganic phosphate was measured by an automatic analyzer(SBA 300, Gilford).
The difference between Group 1 and Group 2 represents the proton pump activity activated by K^+ only. The inhibition percentages of Groups 3 and 4 were calculated from Litchfield-wilcoxon equation[see J. Pharmacol. Exptl. Ther. 96, 99(1949)]. The concentrations of the test compounds which inhibit 50% of the proton pump activity are represented as IC50 in Table 1.

A further assay deals with gastric secretion. Briefly: Inhibition of Gastric Secretion, pylorus-ligated rats (Experiment 2). Format: in vivo, Sprague-Dawley rats. Conditions: relative to omeprazole (equation III), 20 mg/kg intraduodenally, pylorus-ligated rats, 5 hours. As to the method:
In accordance with the method disclosed in Shay, H., et al., Gastroenterology 5, 43-61(1945), Experiment 2 was carried out.
Sprague-Dawley rats having a body weight of 170±10 g were divided into 3 groups(n=5) and deprived of food for 24 hours before the experiment with free access to water. Under ether anesthesia, the abdomen was incised, and the pylorus was ligated. As a comparative group, Group 1 was administered intraduodenally in a volume of 0.5 ml/200 g of 30% aqueous polyethylene glycol 400 solution. Groups 2 and 3 were administered intraduodenally with the compound of Example 34 and omeprazole, respectively, each of which was suspended in 30% aqueous polyethylene glycol 400 solution at a concentration of 20 mg/kg. After closing the abdominal cavity, the rats were placed for 5 hours and then killed by cervical dislocation. The stomach was extracted to obtain gastric juice.
The gastric juice was centrifuged at 1,000 g to remove precipitates. The amount and acidity of the gastric juice were measured. Relative volumes, relative acid concentrations and relative acid outputs of the test compounds were calculated from equations(I), (II) and (III) and the results are shown in Table 2.
(I) = the average amount of gastric juice of Group 1 - the
average amount of gastric juice of Group 2)/(the average
amount of gastric juice of Group 1 - the average amount
of gastric juice of Group 3)
Relative acid concentration
(II) = (the average acidity of Group 1 - the average
acidity of Group 2)/(the average acidity of Group 1 - the average
(III) = (the total amount of acid output of Group 1 - the
total amount of acid output of Group 2)/(the total amount of acid
output of Group 1 - the total amount of acid output of Group

Counter-ions that a name gives are not always drawn.

T1 sequence (P27112 whole entry): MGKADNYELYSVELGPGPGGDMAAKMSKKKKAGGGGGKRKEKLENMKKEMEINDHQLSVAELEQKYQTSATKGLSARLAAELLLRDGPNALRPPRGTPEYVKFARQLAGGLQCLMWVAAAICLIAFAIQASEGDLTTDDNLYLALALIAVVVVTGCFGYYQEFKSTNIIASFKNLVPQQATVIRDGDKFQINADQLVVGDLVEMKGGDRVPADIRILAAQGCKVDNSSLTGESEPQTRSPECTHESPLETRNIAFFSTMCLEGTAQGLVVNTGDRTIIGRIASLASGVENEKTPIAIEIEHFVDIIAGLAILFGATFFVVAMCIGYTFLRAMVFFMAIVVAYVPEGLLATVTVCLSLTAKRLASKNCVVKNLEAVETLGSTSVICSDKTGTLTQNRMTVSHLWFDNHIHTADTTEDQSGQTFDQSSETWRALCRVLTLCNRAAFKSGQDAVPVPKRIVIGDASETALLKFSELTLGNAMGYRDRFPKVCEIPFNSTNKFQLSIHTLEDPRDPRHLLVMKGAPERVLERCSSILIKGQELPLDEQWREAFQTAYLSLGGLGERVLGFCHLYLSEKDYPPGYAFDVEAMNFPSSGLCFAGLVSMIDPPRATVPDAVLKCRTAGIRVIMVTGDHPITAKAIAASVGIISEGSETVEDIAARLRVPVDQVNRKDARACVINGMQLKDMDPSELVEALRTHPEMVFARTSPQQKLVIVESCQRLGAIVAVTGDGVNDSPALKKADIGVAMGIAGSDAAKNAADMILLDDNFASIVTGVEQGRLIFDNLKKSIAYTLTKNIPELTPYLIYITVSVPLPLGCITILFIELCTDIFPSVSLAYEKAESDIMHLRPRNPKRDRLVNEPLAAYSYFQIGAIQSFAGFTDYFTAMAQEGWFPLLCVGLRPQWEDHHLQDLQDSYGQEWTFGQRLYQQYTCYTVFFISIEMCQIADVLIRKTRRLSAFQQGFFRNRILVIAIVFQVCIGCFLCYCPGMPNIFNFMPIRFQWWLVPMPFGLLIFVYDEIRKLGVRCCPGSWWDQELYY
T1 sequence (P18597 whole entry partner): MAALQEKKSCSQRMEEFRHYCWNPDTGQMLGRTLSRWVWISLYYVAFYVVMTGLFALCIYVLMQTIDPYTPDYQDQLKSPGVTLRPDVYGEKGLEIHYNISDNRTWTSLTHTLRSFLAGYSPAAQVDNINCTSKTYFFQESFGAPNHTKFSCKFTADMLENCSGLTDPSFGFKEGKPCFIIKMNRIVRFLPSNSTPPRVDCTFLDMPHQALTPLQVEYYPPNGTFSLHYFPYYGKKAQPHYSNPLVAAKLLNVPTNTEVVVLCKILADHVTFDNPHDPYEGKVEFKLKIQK

For orientation: IC50 means the midpoint of a concentration-inhibition curve. As for `COc1cccc2c(N3CCc4ccccc4C3)nc(N(C)c3ccccc3)nc12.Cl` [Example 29, 8-Methoxy-2-(N-Methylphenyl-Amino)-4-(1,2,3,4-Tetrahydroisoquinoline-2-Yl)Quinazoline Hydrochloride], in assay [1], the Effect ratio was 1.47 and the IC50 worked out at 4.9 µM. Also, the “Relative Acid Output” value in the assay with gastric secretion came to 0.84.
`COc1cccc2c(N3CCc4ccccc4C3)nc(Nc3ccc(F)cc3)nc12.Cl` [Example 30, 8-Methoxy-2-(4-Fluorophenyl-Amino)-4-(1,2,3,4-Tetrahydroisoquinoline-2-Yl)Quinazoline Hydrochloride]: in assay [1], the Effect ratio was determined as 3.27 and the IC50 was found to be 2.2 µM. The “Relative Acid Output” value in the assay on gastric secretion turned out to be 0.76.
Regarding `COc1cccc2c(N3CCc4ccccc4C3)nc(Nc3ccc(F)cc3C)nc12.Cl` [Example 31, 8-Methoxy-2-(4-Fluoro-2-Methyl -Phenylamino)-4-(1,2,3,4-Tetrahydroisoquinoline-2-yl) Quinazoline Hydrochloride], in assay [1], the Effect ratio is given as 5.13 and the IC50 was 2 µM. In addition, in the assay with gastric secretion, the “Relative Acid Output” value stood at 0.79.
As for `COc1cccc2c(N3CCc4ccccc4C3)nc(N(C)c3ccc(F)cc3)nc12.Cl` [Example 32, 8-Methoxy-2-(4-Fluoro-N-Methyl-Phenylamino)-4-(1,2,3,4-Tetrahydroisoquinoline-2-Yl) Quinazoline Hydrochloride], in assay [1], the Effect ratio is listed as greater than 0.58 and the IC50 is greater than 16 µM. Moreover, in the assay with gastric secretion, the “Relative Acid Output” value was 0.43.
Regarding `COc1cccc2c(N3CCc4ccccc4C3C)nc(Nc3ccc(F)cc3)nc12.Cl` (stereo not drawn) [Example 33, 8-Methoxy-2-(4-Fluorophenyl-Amino)-4-(1-Methyl-1,2,3,4-Tetrahydroisoquinoline-2-Yl) Quinazoline Hydrochloride], in assay [1], the Effect ratio stood at 1.22 and the IC50 came out at 2.3 µM. In addition, in the assay on gastric secretion, the “Relative Acid Output” value amounted to 0.79.
As for `COc1cccc2c(N3CCc4ccccc4[C@H]3C)nc(Nc3ccc(F)cc3C)nc12.Cl` [Example 35, (R)-8-Methoxy-2-(4-Fluoro-2-Methylphenylamino)-4-(1-Methyl-1,2,3,4-Tetrahydroisoquinoline-2-Yl)Quinazoline Hydrochloride], in assay [1], the Effect ratio is 2.83 and the IC50 is 1.8 µM. The “Relative Acid Output” value in the assay with gastric secretion was 0.79.
Take `COc1cccc2c(N3CCc4ccccc4[C@@H]3C)nc(Nc3ccc(F)cc3C)nc12.Cl` [Example 36, (S)-8-Methoxy-2-(4Fluoro-2-Methylphenylamino)-4-(1-Methyl-1,2,3,4-Tetrahydroisoquinoline-2-Yl)Quinazoline Hydrochloride]: in assay [1], the Effect ratio is recorded as 1.28 and the IC50 was 4 µM. For the same compound, the “Relative Acid Output” value in the assay with gastric secretion was 0.67.
On the same counts, the results for `Cc1cc(F)ccc1Nc1nc(N2CCc3ccccc3C2C)c2cccc(OCCO)c2n1` (stereo not drawn) [Example 37, 8-(2-Hydroxyethyloxy)-2-(4-Fluoro-2-Methylphenylamino)-4-(1-Methyl-1,2,3,4-Tetrahydroisoquinoline-2-Yl)Quinazoline] are ~ 0.60, roughly 12.5 µM and 0.37.
As to `CCOc1cccc2c(N3CCc4ccccc4C3C)nc(Nc3ccc(F)cc3C)nc12.Cl` (stereo not drawn) [Example 38, 2-(4-Fluoro-2-Methylphenyl-Amino)-8-Ethoxy-4-(1-Methyl-1,2,3,4-Tetrahydroisoquinoline-2-Yl)Quinazoline Hydrochloride], in assay [1], the Effect ratio is recorded as 1.67 and the IC50 was 1.2 µM. Further, the “Relative Acid Output” value with gastric secretion stood at 0.83.
For `CSCOc1cccc2c(N3CCc4ccccc4C3C)nc(Nc3ccc(F)cc3C)nc12` (stereo not drawn) [Example 39, 2-(4-Fluoro-2-Methylphenyl-Amino-8-(Methylthiomethyloxy)-4-(1-Methyl-1,2,3,4-Tetrahydroisoquinoline-2-Yl)Quinazoline Hydrochloride], in assay [1], the Effect ratio worked out at 0.70 and the IC50 amounted to 4 µM. Further, in the assay with gastric secretion, the “Relative Acid Output” value was determined as 0.57.
In the case of `COc1cccc2c(N3CCc4ccccc4C3C)nc(N(C)c3ccccc3)nc12.Cl` (stereo not drawn) [Example 40, 8-Methoxy-2-(N-Methylphenyl-Amino)-4-(1-Methyl-1,2,3,4-Tetrahydroisoquinoline-2-Yl) Quinazoline Hydrochloride], in assay [1], the Effect ratio came out at 8.15 and the IC50 turned out to be 1.3 µM. Besides, in the assay with gastric secretion, the “Relative Acid Output” value turned out to be 0.82.
In the case of `COc1cccc2c(N3CCc4ccccc4C3C)nc(N(C)c3ccc(F)cc3)nc12.Cl` (stereo not drawn) [Example 41, 8-Methoxy-2-(4-Fluoro-N-methyl-Phenylamino)-4-(1-Methyl-1,2,3,4-Tetrahydroisoquinoline-2-Yl)Quinazoline Hydrochloride], in assay [1], the Effect ratio was determined as 2.00 and the IC50 worked out at 3.8 µM. The “Relative Acid Output” value in the assay with gastric secretion is on record as 0.48.
Consider `COc1cccc2c(N3CCc4ccccc4C3C(F)(F)F)nc(Nc3ccc(F)cc3C)nc12.Cl` (stereo not drawn) [Example 42, 2-(4-Fluoro-2-Methylphenyl-Amino)-8-Methoxy-4-(1-Trifluoromethyl-1,2,3,4-Tetrahydroisoquinoline-2-Yl)Quinazoline Hydrochloride], for which, in assay [1], the Effect ratio is listed as less than 0.18 and the half-maximal inhibitory concentration (IC50) turned out to be 12.5 µM. The “Relative Acid Output” value with gastric secretion was determined as 0.42.
On to `COc1cccc2c(N3CCc4ccccc4C3CF)nc(Nc3ccc(F)cc3)nc12.Cl` (stereo not drawn) [Example 43, 2-(4-Fluorophenylamino)-8-Methoxy-4-(1-Fluoromethyl-1,2,3,4-Tetrahydroisoquinoline-2-Yl)Quinazoline Hydrochloride], for which, in assay [1], the Effect ratio is less than 0.97 and the IC50 was greater than 12.5 µM. For the same compound, in the assay on gastric secretion, the “Relative Acid Output” value worked out at 0.76.
The corresponding values for `COc1cccc2c(N3CCc4ccccc4C3CF)nc(Nc3ccc(F)cc3C)nc12.Cl` (stereo not drawn) [Example 44, 2-(4-Fluoro-2-Methylphenyl-Amino)-8-Methoxy-4-(1-Fluoromethyl-1,2,3,4-Tetrahydroisoquinoline-2-Yl)Quinazoline Hydrochloride] are ~ 0.97, roughly 12.5 µM and 0.75.
